# Data taken from ChEMBL document CHEMBL3885861, “Open TG-GATES”.
# Species: Rattus norvegicus
# Assay: Open TG-GATES - Regimen: Single
# Assay type: toxicity, organism-based, Sprague-Dawley
# Parameters: regimen Single, gender Male, age 6 weeks
# Conditions: in vivo, iv, 300 mg/kg, route intravenous injection, dose level Low; for APTT / Bas / Eos / Fbg / Hb / Ht / Lym / MCH / MCHC / MCV / Mono / PT / Plat / RBC / Ret / WBC: tissue Blood; for KIDNEY_L / KIDNEY_R / KIDNEY_TOTAL: tissue Kidney; for LIVER: tissue Liver; for ALP / ALT / AST / BUN / CRE / Ca / Cl / DBIL / GLC / IP / K / LDH / Na / PL / RALB / TBIL / TC / TG / TP / gamma-GTP: tissue Plasma
structure (smiles),measurement,setting,value
CC(=O)OCC1=C(C(=O)O)N2C(=O)[C@@H](NC(=O)Cc3cccs3)[C@H]2SC1 [CEPHALOTHIN],TERMINAL_BW,3 h,215.7 g
same,APTT,3 h,21.9 s
same,Bas,3 h,0%
same,Eos,3 h,0.6%
same,Fbg,3 h,294.6 mg/dL
same,Hb,3 h,13 g/dL
same,Ht,3 h,38.4%
same,Lym,3 h,75.4%
same,MCH,3 h,21.3 pg
same,MCHC,3 h,33.8%
same,MCV,3 h,62.9 fL
same,Mono,3 h,2.6%
same,PT,3 h,16.4 s
same,Plat,3 h,128.8 x10_4/uL
same,RBC,3 h,611.6 x10_4/ul
same,Ret,3 h,6.6%
same,WBC,3 h,98.3 x10_2/uL
same,KIDNEY_L,3 h,0.9 g
same,KIDNEY_R,3 h,1 g
same,KIDNEY_TOTAL,3 h,1.9 g
same,LIVER,3 h,9.8 g
same,ALP,3 h,1407.8 IU/L
same,ALT,3 h,49.8 IU/L
same,AST,3 h,87.8 IU/L
same,BUN,3 h,12.4 mg/dL
same,CRE,3 h,0.2 mg/dL
same,Ca,3 h,10.5 mg/dL
same,Cl,3 h,105.8 meq/L
same,DBIL,3 h,0 mg/dL
same,GLC,3 h,179 mg/dL
same,IP,3 h,7.8 mg/dL
same,K,3 h,4.1 meq/L
same,LDH,3 h,204.4 IU/L
same,Na,3 h,142.4 meq/L
same,PL,3 h,135.2 mg/dL
same,RALB,3 h,2.8 g/dL
same,TBIL,3 h,0.016 mg/dL
same,TC,3 h,69.2 mg/dL
same,TG,3 h,92 mg/dL
same,TP,3 h,5.2 g/dL
same,gamma-GTP,3 h,1.4 IU/L
same,TERMINAL_BW,6 h,208.2 g
same,APTT,6 h,22.7 s
same,Bas,6 h,0%
same,Eos,6 h,0.8%
same,Fbg,6 h,278.6 mg/dL
same,Hb,6 h,13.4 g/dL
same,Ht,6 h,38.9%
same,Lym,6 h,78%
same,MCH,6 h,21.3 pg
same,MCHC,6 h,34.4%
same,MCV,6 h,62 fL
same,Mono,6 h,2.6%
same,PT,6 h,16 s
same,Plat,6 h,118.3 x10_4/uL
same,RBC,6 h,627.2 x10_4/ul
same,Ret,6 h,5.9%
same,WBC,6 h,75.8 x10_2/uL
same,KIDNEY_L,6 h,0.9 g
same,KIDNEY_R,6 h,0.9 g
same,KIDNEY_TOTAL,6 h,1.9 g
same,LIVER,6 h,8.9 g
same,ALP,6 h,1320.4 IU/L
same,ALT,6 h,36.8 IU/L
same,AST,6 h,78.4 IU/L
same,BUN,6 h,9.6 mg/dL
same,CRE,6 h,0.2 mg/dL
same,Ca,6 h,10.3 mg/dL
same,Cl,6 h,105.6 meq/L
same,DBIL,6 h,0 mg/dL
same,GLC,6 h,171.6 mg/dL
same,IP,6 h,9 mg/dL
same,K,6 h,4.1 meq/L
same,LDH,6 h,162.4 IU/L
same,Na,6 h,141.6 meq/L
same,PL,6 h,125.4 mg/dL
same,RALB,6 h,2.9 g/dL
same,TBIL,6 h,0.022 mg/dL
same,TC,6 h,66.4 mg/dL
same,TG,6 h,75.2 mg/dL
same,TP,6 h,5.3 g/dL
same,gamma-GTP,6 h,1 IU/L
same,TERMINAL_BW,9 h,211.4 g
same,APTT,9 h,24.2 s
same,Bas,9 h,0%
same,Eos,9 h,1%
same,Fbg,9 h,284 mg/dL
same,Hb,9 h,13.2 g/dL
same,Ht,9 h,38.6%
same,Lym,9 h,81.2%
same,MCH,9 h,21.3 pg
same,MCHC,9 h,34.1%
same,MCV,9 h,62.3 fL
same,Mono,9 h,2%
same,PT,9 h,16.1 s
same,Plat,9 h,135 x10_4/uL
same,RBC,9 h,619.6 x10_4/ul
same,Ret,9 h,6.4%
same,WBC,9 h,77.3 x10_2/uL
same,KIDNEY_L,9 h,1 g
same,KIDNEY_R,9 h,1 g
same,KIDNEY_TOTAL,9 h,1.9 g
same,LIVER,9 h,8.6 g
same,ALP,9 h,1157.8 IU/L
same,ALT,9 h,34.2 IU/L
same,AST,9 h,69 IU/L
same,BUN,9 h,10 mg/dL
same,CRE,9 h,0.1 mg/dL
same,Ca,9 h,10.4 mg/dL
same,Cl,9 h,106.2 meq/L
same,DBIL,9 h,0 mg/dL
same,GLC,9 h,180.8 mg/dL
same,IP,9 h,9.6 mg/dL
same,K,9 h,4.5 meq/L
same,LDH,9 h,128.6 IU/L
same,Na,9 h,141 meq/L
same,PL,9 h,115.8 mg/dL
same,RALB,9 h,2.8 g/dL
same,TBIL,9 h,0.02 mg/dL
same,TC,9 h,60.6 mg/dL
same,TG,9 h,71.2 mg/dL
same,TP,9 h,5.1 g/dL
same,gamma-GTP,9 h,1.4 IU/L
same,TERMINAL_BW,24 h,226.1 g
same,APTT,24 h,22 s
same,Bas,24 h,0%
same,Eos,24 h,0.8%
same,Fbg,24 h,303.8 mg/dL
same,Hb,24 h,13.2 g/dL
same,Ht,24 h,38.9%
same,Lym,24 h,81%
same,MCH,24 h,20.6 pg
same,MCHC,24 h,34%
same,MCV,24 h,60.4 fL
same,Mono,24 h,2.2%
same,PT,24 h,16.7 s
same,Plat,24 h,120 x10_4/uL
same,RBC,24 h,645.2 x10_4/ul
same,Ret,24 h,6%
same,WBC,24 h,89.2 x10_2/uL
same,KIDNEY_L,24 h,1 g
same,KIDNEY_R,24 h,1 g
same,KIDNEY_TOTAL,24 h,2 g
same,LIVER,24 h,10.2 g
same,ALP,24 h,1605.2 IU/L
same,ALT,24 h,53 IU/L
same,AST,24 h,77.6 IU/L
same,BUN,24 h,17 mg/dL
same,CRE,24 h,0.2 mg/dL
same,Ca,24 h,10.6 mg/dL
same,Cl,24 h,105.8 meq/L
same,DBIL,24 h,0 mg/dL
same,GLC,24 h,184.4 mg/dL
same,IP,24 h,7.2 mg/dL
same,K,24 h,4.3 meq/L
same,LDH,24 h,171.6 IU/L
same,Na,24 h,142.4 meq/L
same,PL,24 h,135.6 mg/dL
same,RALB,24 h,2.9 g/dL
same,TBIL,24 h,0.016 mg/dL
same,TC,24 h,70.6 mg/dL
same,TG,24 h,90 mg/dL
same,TP,24 h,5.4 g/dL
same,gamma-GTP,24 h,2 IU/L
